This test deals with B16 melanoma cells. The test can be described thus: Caspase-3 activity assay (EnzChek Caspase-3 Assay Kit), caspase-3 induction in tumor cells. For all read-outs here: test concentration or dose not given here. It is filed as cell-based, mouse. The settings on record: for Caspase-3 induction, Normalized to Formula (III) (%): relative to compound of Formula (III). The essentials: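 B16 melanoma cells exposed to compounds for 24 h, lysed on ice 30 min, and lysate incubated with Z-DEVD-R110 substrate about 30 min at room temperature. Fluorescence read at ~496/520 nm against untreated-cell and no-enzyme controls; caspase-3 induction serves as surrogate for GrB activity from Sb9 inhibition.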

Turning to `O=C(NCCCO)c1ccc2oc(-c3ccc(C(F)(F)F)cc3)nc2c1` [N-(3-hydroxypropyl)-2-[4-(trifluoromethyl)phenyl]-1,3-benzoxazole-5-carboxamide], the “Ratio of caspase-3 activity to Formula (III)” value (from here on “Ratio of caspase-3 activity”) is recorded as 1.003.
As to `COCCCNC(=O)c1ccc2nc(C(F)(F)C(F)(F)F)oc2c1` [N-(3-methoxypropyl)-2-(1,1,2,2,2-pentafluoroethyl)-1,3-benzoxazole-6-carboxamide], the “Caspase-3 induction, Normalized to Formula (III) (%)” value was −23.2124%.
As to `COCCCNC(=O)c1ccc2nc(C3CCCO3)oc2c1` (centres unmarked) [N-(3-methoxypropyl)-2-(oxolan-2-yl)-1,3-benzoxazole-6-carboxamide], the “Caspase-3 induction, Normalized to Formula (III) (%)” value is recorded as −69.878%.
Turning to `COCCCNC(=O)c1cccc2oc(C)nc12` [N-(3-methoxypropyl)-2-methyl-1,3-benzoxazole-4-carboxamide], the “Caspase-3 induction, Normalized to Formula (III) (%)” value is listed as −70.4086%.
Take `COCCCNC(=O)c1ccc2nc(S)oc2c1` [N-(3-methoxypropyl)-2-sulfanyl-1,3-benzoxazole-6-carboxamide]: the “Caspase-3 induction, Normalized to Formula (III) (%)” value came out at 15.2459%.
Turning to `CC1(C)CC(NC(=O)c2ccc3nc(-c4ccccc4)oc3c2)CO1` (centres unmarked) [N-(5,5-dimethyloxolan-3-yl)-2-phenyl-1,3-benzoxazole-6-carboxamide], the “Ratio of caspase-3 activity” value worked out at 0.09307.
On to `COc1cc(C(=O)NCC2CCCC2)ccc1OCCC(C)C` [N-(cyclopentylmethyl)-3-methoxy-4-(3-methylbutoxy)benzamide], for which the “Caspase-3 induction, Normalized to Formula (III) (%)” value is −50.1028%.
`COc1cccc(-c2nc3ccc(C(=O)N(CC4CC4)CC4CCCO4)cc3o2)c1` (centres unmarked) [N-(cyclopropylmethyl)-2-(3-methoxyphenyl)-N-(tetrahydro-2-furanylmethyl)-1,3-benzoxazole-6-carboxamide]: the “Ratio of caspase-3 activity” value is 0.1369.
Turning to `COc1cc(C(=O)NCCN(C)C)ccc1OCCC(C)C` [N-[2-(dimethylamino)ethyl]-3-methoxy-4-(3-methylbutoxy)benzamide], the “Caspase-3 induction, Normalized to Formula (III) (%)” value was 6.8323%.
The same measure, in the same setting: under `CCOc1ccc(C(=O)NCCN(C)C)cc1O` [N-[2-(dimethylamino)ethyl]-4-ethoxy-3-hydroxybenzamide] stands −38.5237%; under `COc1cc(C(=O)NCCN(C)C)cc(OC)c1O` [N-[2-(dimethylamino)ethyl]-4-hydroxy-3,5-dimethoxybenzamide], −5.767%.
Regarding `CN(C)CCNC(=O)c1cc2c(cc1O)OCO2` [N-[2-(dimethylamino)ethyl]-6-hydroxy-2H-1,3-benzodioxole-5-carboxamide], the “Caspase-3 induction, Normalized to Formula (III) (%)” value amounted to 2.3274%.
Take `Cc1cc(CNC(=O)c2ccc3oc(-c4cccc(F)c4)nc3c2)nn1C` [N-[(1,5-dimethyl-1H-pyrazol-3-yl)methyl]-2-(3-fluorophenyl)-1,3-benzoxazole-5-carboxamide]: the “Ratio of caspase-3 activity” value is reported as 0.123.
The same measure, in the same setting: under `CCn1ccnc1CN(C)C(=O)c1ccc2nc(-c3cccc(OC)c3)oc2c1` [N-[(1-ethyl-1H-imidazol-2-yl)methyl]-2-(3-methoxyphenyl)-N-methyl-1,3-benzoxazole-6-carboxamide] stands 1.071.
For `CCn1ccnc1CN(C)C(=O)c1ccc2oc(-c3ccc(C(F)(F)F)cc3)nc2c1` [N-[(1-ethyl-1H-imidazol-2-yl)methyl]-N-methyl-2-[4-(trifluoromethyl)phenyl]-1,3-benzoxazole-5-carboxamide], the “Ratio of caspase-3 activity” value was found to be 0.1566.
As for `CCn1cc(CNC(=O)c2ccc3oc(-c4cccc(F)c4)nc3c2)cn1` [N-[(1-ethyl-1H-pyrazol-4-yl)methyl]-2-(3-fluorophenyl)-1,3-benzoxazole-5-carboxamide], the “Ratio of caspase-3 activity” value is recorded as 1.163.
Same read-out and setting: under `COc1cccc(-c2nc3ccc(C(=O)N(C)Cc4c(C)n[nH]c4C)cc3o2)c1` [N-[(3,5-dimethyl-1H-pyrazol-4-yl)methyl]-2-(3-methoxyphenyl)-N-methyl-1,3-benzoxazole-6-carboxamide] stands 0.1324.
